The conditions of data set [1]: oral azithromycin, 12 CF patients; cited from earlier work.
The format of data set [2] is in vivo, human. The note with it: for AUC / Cmax: human, plasma, po, 120 mg/m^2/day, oral erlotinib 120 mg/m^2/day (150 mg).
The conditions of data set [3]: child with glioblastoma, cited from earlier work.
The conditions of data set [4]: cited from earlier work.
The conditions of data set [5]: adults, 150 mg/day; cited from earlier work.
For data set [6] the following is noted: cited from earlier work. This is another data set of the same source.
For data set [7] the following is noted: adults, 150 mg/day; cited from earlier work. This is another data set of the same source.
For data set [8] the following is noted: cited from earlier work. The source holds these as a separate data set.
For data set [9] the following is noted: children, 120 mg/m^2/day, range in parentheses; cited from earlier work.
For data set [10] the following is noted: orally administered ganciclovir; cited from earlier work.
The mark [11] stands for this setting: cystic fibrosis patient, oral erlotinib 150 mg daily.
[12] abbreviates: adult patients with advanced malignant disease.

Each structure is given as a SMILES string. Where two headings read alike, the source gives them in different places.

The source of these data is article PMC2704987 (Pharmacotherapy, 2009).

In the case of `CC[C@H]1OC(=O)[C@H](C)[C@@H](O[C@H]2C[C@@](C)(OC)[C@@H](O)[C@H](C)O2)[C@H](C)[C@@H](O[C@@H]2O[C@H](C)C[C@H](N(C)C)[C@H]2O)[C@](C)(O)C[C@@H](C)CN(C)[C@H](C)[C@@H](O)[C@]1(C)O` [azithromycin], in data set [1], the “Cmax, Tmax, and AUC values, CF patients versus healthy volunteers” value is on record as “similar”; the “absorption rate constant (ka) and absolute bioavailability (F), CF patients versus healthy volunteers” value is on record as “no statistically significant difference”.
Consider `C#Cc1cccc(Nc2ncnc3cc(OCCOC)c(OCCOC)cc23)c1` [erlotinib], for which the “ka (absorption rate constant)” value in data set [2] (cystic fibrosis patient, oral erlotinib 120 mg/m^2/day) came out at 1.51 h^−. In addition, in data set [2] (cystic fibrosis patient, oral erlotinib 120 mg/m^2/day, with pancrelipase), the “VdERL (apparent volume of distribution of erlotinib)” value was 60.4 L/m^2. Besides, in data set [2] (setting [11]), the “Apparent clearance of erlotinib” value was 4.9 L/h/m^2, the “Apparent volume of distribution of erlotinib” value stood at 60.4 L and the “rate of erlotinib absorption (ka)” value worked out at 1.51 h⁻¹. Also, the “absorption of orally administered erlotinib in a cystic fibrosis patient” value in data set [2] (given concomitantly with pancreatic enzymes replacement therapy) is “not affected”. Also, the AUC in [2] (Day 1 AUCERL, cystic fibrosis patient, day 1, plasma) is 18800 ng·h/mL. Also, in data set [2] (Day 1 Cmax, cystic fibrosis patient, day 1, plasma), the Cmax turned out to be 1440 ng/mL. The AUC in data set [2] (Day 8 AUCERL, cystic fibrosis patient, day 8 (steady state)) was 25700 ng·h/mL. Further, in data set [2] (Day 8 Cmax, cystic fibrosis patient, day 8, plasma), the concentration peaked (Cmax) at 1460 ng/mL. In data set [3] (70 mg/m^2/day), the “Day 1 AUCERL” value was 19400 ng·h/mL, the “Day 8 AUCERL” value is 32600 ng·h/mL and the ka was 0.59 h^−. For the same compound, in data set [3] (oral erlotinib), the “penetration of erlotinib into the CSF” value is “modest”. Besides, in data set [4], the “bound to plasma proteins” value was 95%. The “Day 1 AUCERL” value in data set [5] was 19400 ± 10000 ng·h/mL. Further, the “solubility in water and methanol” value in [6] was “poor”. For the same compound, in data set [7], the “Day 1 AUCERL” value is 16540 ± 11020 ng·h/mL. Also, in [8] (setting [12]), the half-life is 10 to 36 h and the “time to maximum concentration (Cmax) after dose administration” value was 2 to 4 h. Also, in data set [8] (adults, administration with food), the “bioavailability after oral administration with food” value was at least 100%. Also, in data set [8] (adults, biliary excretion), the elimination in feces is recorded as 63%. In addition, the “bioavailability after oral administration” value in data set [8] (adults, without food) is recorded as “approximately 60%”. The elimination in urine in data set [8] (adults) is 13%. In data set [9], the “Day 1 AUCERL” value is 22.6 (18.2–27) mcg*h/mL, the “Day 1 Cmax” value was 1260 (490–2020) ng/mL and the “Day 8 AUCERL” value is given as 29.5 (12–47) mcg*h/mL.
Consider `Nc1nc(O)c2ncn(COC(CO)CO)c2n1` [ganciclovir], for which the “pharmacokinetic parameters in post-lung transplant patients with CF” value in data set [10] was “predictable”.

Usually AUC stands for concentration integrated over time. Usually Cmax stands for the peak of the concentration-time curve. For orientation: half-life means the time in which the quantity being followed falls by half.
